Measurements taken from patent publication US20140031388A1, “AKT INACTIVATION BY TOCOPHERYL DERIVATIVES” (priority 2012, published 2014).
Where two headings read alike, the source gives them in different places.

How the values were obtained:
[1] = test system: Normal prostate epithelial cells; test: Viability / apoptosis in normal prostate epithelial cells; assay type: cell-based; conditions: Epithelial cell
Method: (§1) The prostate cancer cell lines, LNCaP and PC-3, were purchased from American Type Culture Collection (Manassas, Va.) and maintained in RPMI 1640 medium containing 10% heat-inactivated fetal bovine serum at 37° C. in a humidified incubator containing 5% CO2. The LNCaP-abl cells were a generous gift from Dr. Qianben Wang (The Ohio State University). Normal prostate epithelial cells were purchased from Lonza (Walkersville, Md.) and were cultured in the vendor-recommended defined prostate epithelial cell growth medium. For experiments, LNCaP cells were plated on poly-D-lysine-coated culture flasks at a density of 12,000 cells per cm^2 surface area for 24 hours, followed by treatment with test agents in serum-free RPMI 1640 medium. The α- and γ-tocopherols were purchased from Sigma-Aldrich (St. Louis, Mo.). The tocopherol derivatives, α- and γ-VE5, were synthesized by the inventors.
(§2) LNCaP cells were plated into poly-D-lysine-coated 96-well plates and PC-3 and LNCaP-abl cells into uncoated plates at the density of 5,000 cells per well in the presence of 10% FBS. Normal prostate epithelial cells were plated into uncoated plates at a density of 8,000 cells per well. Exposure to test agents in serum-free medium was initiated 24 hours later. After 24 hours of treatment, cells were incubated with MTT [3-(4,5-dimethylthiazol-2-yl)-2,5-diphenyl-2H-tetrazolium bromide] (TCI America; 0.5 mg/ml, final concentration) for an additional 2 hours. The medium was then removed from each well and replaced with DMSO to dissolve the reduced MTT dye for subsequent colorimetric measurement of absorbance at 595 nm. Cell viabilities are calculated as percentages of that in the corresponding vehicle-treated control group.

LNCaP-abl cells = test: MTT viability assay, LNCaP-abl; assay type: cell-based; conditions: Homo sapiens; LNCaP-abl cells (comparable to parental LNCaP); read-out: IC50, antiproliferative effect
Method: as §1
LNCaP cells were plated into poly-D-lysine-coated 96-well plates and PC-3 and LNCaP-abl cells into uncoated plates at the density of 5,000 cells per well in the presence of 10% FBS. […] The medium was then removed from each well and replaced with DMSO to dissolve the reduced MTT dye for subsequent colorimetric measurement of absorbance at 595 nm. Cell viabilities are calculated as percentages of that in the corresponding vehicle-treated control group.

LNCaP cells = test: MTT viability assay, LNCaP; assay type: cell-based; conditions: Homo sapiens, 1% FBS-containing or serum-free RPMI 1640 medium for 24 h
Method: as §1
as §2, with “Exposure to test agents in serum-free medium was initiated 24 hours later.” left out

[2] = molecular target: T1, PH domain of ILK (GST-PH domain fusion protein) (Homo sapiens, UniProt Q13418); test: Surface plasmon resonance binding, ILK PH domain; conditions: SPR; means (n = 3) ± SD; read-out: Kd, ILK PH domain
T1 construct: made in house
T1 sequence (Q13418 180-212 limits assumed): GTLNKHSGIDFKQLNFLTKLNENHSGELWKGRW
Description: (§3) The cDNA fragments corresponding to the putative PH domain sequences of PHLPP1 (+115 to +372), PDK1 (+1225 to +1671), Akt1 (+1 to +447) and ILK (+538 to +646) were PCR-amplified using the plasmids pcDNA-HA-PHLPP1, pWZL-Neo-Myr-FLAG-PDPK1, pcDNA-HA-PKB-T308D-S473D, and pCMV-SPORT-ILK (Addgene) as templates. The PCR products were then cloned into EcoRI/XhoI sites of the pGEX-4T1 expression vector (GE Healthcare Life Sciences) to generate four constructs (pGEX-4T1-PHLPP1, pGEX-4T1-PDPK1, pGEX-4T1-AKT1, pGEX-4T1-ILK) for the expression of GST-PH domain fusion proteins. The mutated Akt1 Y38G PH domain was generated from pGEX-4T1-AKT1 by site-directed mutagenesis using the QuikChange II XL Site-Directed Mutagenesis Kit (Agilent Technologies). The expression and purification of GST-PH domain fusion proteins were performed essentially as described previously. Thomas et al., Curr Biol 12, 1256 (2002). The purified PH domains were analyzed by SDS-PAGE using an overloaded gel with purities were estimated to be >95% using ImageJ software.
(§4) Binding experiments were performed using a Biacore T100 system (GE Healthcare, Piscataway, N.J.). The GST-PH domain fusion proteins were immobilized on a CM5 S Sensorchip using Biacore's Amine Coupling Kit to a level of 17,000 response units. VE5 compounds and di-octanoyl PIP3 at concentrations ranging from 0.1 to 100 μM and 1 to 20 μm, respectively, were injected at a high flow rate (30 μL/min) over the biosensor surface for binding analyses. DMSO concentrations in all samples and running buffer were 1% (v/v) or less. Data were analyzed using Biacore T100 Evaluation Software.

[3] = molecular target: T2, PH domain of PDK1 (GST-PH domain fusion protein) (Homo sapiens, UniProt O15530); test: Surface plasmon resonance binding, PDK1 PH domain; conditions: SPR; means (n = 3) ± SD; read-out: Kd, PDK1 PH domain
T2 construct: made in house
T2 sequence (O15530 459-550 limits assumed): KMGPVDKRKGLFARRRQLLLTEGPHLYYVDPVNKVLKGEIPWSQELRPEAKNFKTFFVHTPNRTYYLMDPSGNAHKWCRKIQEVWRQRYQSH
Description: as §3, §4

[4] = molecular target: T3, PH domain of PHLPP1 (GST-PH domain fusion protein) (Homo sapiens, UniProt O60346); test: Surface plasmon resonance binding, PHLPP1 PH domain; conditions: SPR; means (n = 3) ± SD; read-out: Kd, PHLPP1 PH domain
T3 construct: made in house
T3 sequence (O60346 536-636 limits assumed): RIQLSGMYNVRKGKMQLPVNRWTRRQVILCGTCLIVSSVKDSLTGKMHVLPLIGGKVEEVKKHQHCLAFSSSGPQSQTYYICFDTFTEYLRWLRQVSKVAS
Description: as §3, §4

[5] = molecular target: T4, PH domain of Akt (GST-PH domain fusion protein) (Homo sapiens, UniProt P31749); test: Surface plasmon resonance binding, Akt PH domain; conditions: SPR, wild-type PH domain; means (n = 3) ± SD; read-out: Kd, Akt PH domain
T4 construct: made in house
T4 sequence (P31749 5-108 limits assumed): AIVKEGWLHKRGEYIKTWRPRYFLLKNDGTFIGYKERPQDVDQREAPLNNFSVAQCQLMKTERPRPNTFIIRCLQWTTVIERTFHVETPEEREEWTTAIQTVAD
Description: as §3, §4

PC-3 cells = test: MTT viability assay, PC-3; assay type: cell-based; conditions: Homo sapiens
Method: as §1
as §2, with “Exposure to test agents in serum-free medium was initiated 24 hours later.” left out

Row | IC50 (LNCaP cells; 24 h) [µM] | Kd [2] [µM] | Kd [3] [µM] | Kd [4] [µM] | Kd [5] [µM] | IC50 (PC-3 cells; PC-3, 24 h, 1% FBS-containing or serum-free RPMI 1640 medium for 24 h, read-out: IC50 (μM) PC-3) [µM] | IC50 (PC-3 cells; PC-3, Table 3, antitumor activities against PC-3 cells, read-out: IC50) [µM] | IC50 (LNCaP cells) [µM] | IC50 (PC-3 cells; PC-3, 1% FBS-containing or serum-free RPMI 1640 medium for 24 h, read-out: IC50 (μM) PC-3) [µM] | Compound | IC50 [1] [µM] | IC50 (LNCaP-abl cells) [µM]
1 | 12 | 18.7 ± 4.5 | 12.4 ± 0.1 | 0.7 ± 0.1 | 0.9 ± 0.1 | 8 | 8.5 |  |  | Cc1c(O)cc2c(c1C)O[C@](C)(CCCC(C)C)CC2 [γ-VE5, (R)-2,7,8-trimethyl-2-(4-methylpentyl)-chroman-6-ol] | ~40 | 7
2 |  | 26.6 ± 1 | 19.3 ± 0.6 | 3.1 ± 0.3 | 3.4 |  |  | 20 | 15 | Cc1c(C)c2c(c(C)c1O)CC[C@@](C)(CCCC(C)C)O2 [α-VE5, (R)-2,5,7,8-tetramethyl-2-(4-methylpentyl)-chroman-6-ol] | ~50 | 10
